# Data published in patent US20250152580A1, “METHODS FOR TREATING IMMUNE DISEASES” (Ascentage Pharma (Suzhou) co., Ltd., priority 2022, published 2025).
# “Also recorded” adds a separate entry of the source.
# Tests used:
# OVA induced asthma model = assay: OVA (ovalbumin) induced asthma model in Balb/cA mice; type: in vivo; details: for pathological score in lung tissues (H&E): vehicle 4.08±0.23
# Text: Ovalbumin (OVA)-sensitized and challenged BALB/c mice are widely used as an asthma model and are characterized by high levels of serum IgE, airway inflammation, epithelial hypertrophy, goblet cell hyperplasia, and AHR, which are similar to the features observed in human allergic asthma.
# Female Balb/cA mice (8 weeks old) were obtained from Shanghai Jihui Laboratory Animal Co. Ltd. Animals were housed and handled in a temperature-controlled environment with a 12-h light/12-h dark cycle. A total of 66 mice were assigned to 6 groups by randomization based on body weight.
# Mice in Group 2 are intraperitoneally immunized with OVA (25 μg) emulsified in Imject alum (2.0 mg of Al[OH]3) on day 1. During this sensitization phase, the mice produce anti-OVA IgE antibodies, which bind IgE receptors on mast cells. After this sensitization, the mice are intratracheally challenged with OVA from day 8 today 14, resulting in OVA cross-linked IgE on mast cells and leading to degranulating mast cells. Mice then develop clinical features of asthma. The mice in the Group 1 normal control group were sensitized and challenged with […] (without OVA).
# Mice in Group 1 and Group 2 were treated with vehicle for 7 days (po, qd, from day 8 to day 14). Mice in Group 3 were treated with 50 mg/kg Cpd. X for 8 days (iv, biw, day 1 and day 4). Mice in Group 4 were treated with 30 mg/kg Cpd. 4 for 7 days (po, qd, from day 8 to day 14). Mice in Group 5 were treated with 100 mg/kg Cpd. 4 for 7 days (po, qd, from day 8 to day 14). 3 mg/kg dexamethasone was used as positive control which was orally administered to mice in Group 6 for 7 days (qd, from day 8 to day 14). The protocols and procedures involving the care and use of animals were approved by the Institutional Animal Care and Use Committee (IACUC) at KCI (Suzhou, China).
# Airway responsiveness was determined invasively based on lung resistance.
# After challenge with aerosolized methacholine. Briefly, mice were challenged with methacholine aerosol in increasing concentrations (0, 6.25, 12.5, and 25 mg/mL in saline) on day 13 by using the noninvasive pulmonary function instrument. Data on lung resistance were continuously collected, and mean values were selected to express changes in airway function and regarded as one form of inflammation expression. Data are presented as the airway stenosis index (penh).
# Twenty-four hours after the final OVA challenge (on day 15), mice were killed, and BAL cells were collected by means of slow injection of ice-cold PBS into the trachea, which was repeated 3 times. Numbers of cells in BAL fluid were counted with a chamber. Number of eosinophils in a total of 100 cells was counted under a microscope. Results are expressed as percentage of eosinophils of BAL fluid.
# Twenty-four hours after the final OVA challenge (on day 15), mice were killed, and the serum was collected. The OVA-specific IgE levels were measured with the method of enzyme linked immunosorbent assay (ELISA) according to manufacturer protocol.
# Twenty-four hours after the final OVA challenge (on day 15), mice were killed, and the lung tissue samples were collected and fixed in 4% paraformaldehyde. Then, they were embedded in paraffin and cut into […] sections for histopathological analysis. Lung sections were then stained with hematoxylin and eosin (H&E) to calculate the inflammatory changes. The histopathological score was evaluated microscopically in a blinded manner. Five arbitrarily selected fields of each mouse were photographed with an optical microscope and the images were determined and analyzed in detail. […]
# OXA induced DTH model = assay: OXA induced delayed type hypersensitivity (DTH) model in Balb/c mice; type: in vivo
# Text: A delayed-type hypersensitivity (DTH) reaction is an expression of cell-mediated immunity and plays a major role in the pathology and chronicity of many inflammatory disorders. Delayed-type hypersensitivity (DTH) reactions can be induced by allergens, including oxazolone.
# Female Balb/c mice (6-8 weeks old) were obtained from Shanghai Jihui Experiment Animal Feeding Co. Ltd. Animals were housed and handled in a temperature-controlled environment with a 12-h light/12-h dark cycle. A total of 48 mice were assigned to 6 groups by randomization based on body weight.
# To induce DTH, all right ears of mice except the G1 sham control group were applied with oxazolone (OXA). Briefly, skin inflammation was induced by topical administration with 100 μL of 1.5% OXA dissolved in acetone/olive oil on day 1 and repeated 20 μL of 1% OXA on day 6. G1 sham control group was treated same volume of vehicles. Therapeutic group of 100 mg/kg Cpd. 4 (po, 0 h/6 h after challenge on day 6) or 0.05 mg/ear dexamethasone (topical, 1 h/6 h after challenge on day 6) were applied to the mice. […]
# Ear thickness were measured with a micrometer before challenge on day 6 and 24 h after oxazolone challenge on Day 7 and reported as the mean change in ear thickness. […]
# [1] = day 15, Cpd. 4 30 and 100 mg/kg po qd, Cpd. X 50 mg/kg iv biw, dexamethasone 3 mg/kg po qd, compared with Vehicle
smiles,measurement,setting,value
"O=C(NS(=O)(=O)c1ccc(NC[C@H]2COCCO2)c([N+](=O)[O-])c1)c1ccc(N2CCN(CC3=C(c4ccc(Cl)cc4)CC4(CCC4)CC3)CC2)cc1Oc1cnc2[nH]ccc2c1 [Cpd. 4, (S)-N-((4-(((1,4-dioxan-2-yl)methyl)amino)-3-nitrophenyl)sulfonyl)-2-((1H-pyrrolo[2,3-b]pyridin-5-yl)oxy)-4-(4-((6-(4-chlorophenyl)spiro[3.5]non-6-en-7-yl)methyl)piperazin-1-yl)benzamide]",pathological score in lung tissues (H&E),"OVA induced asthma model; 30 mg/kg po qd day 8-14, day 15",2.64±0.08
same,pathological score in lung tissues (H&E),"OVA induced asthma model; 100 mg/kg po qd day 8-14, day 15",2.66±0.17
same,pathological score in lung tissues (in words),"OVA induced asthma model; Cpd. 4 and Cpd. X, compared with Vehicle",significantly ameliorated
same,percentage of eosinophils in BALF,OVA induced asthma model; [1],downregulated markedly; also recorded: significantly downregulated
same,serum OVA-specific IgE (ELISA),OVA induced asthma model; [1],significantly reduced; also recorded: significantly decreased
same,"airway stenosis index (penh), airway hyper-responsiveness (AHR)","OVA induced asthma model; methacholine challenge day 13, Cpd. 4 30 and 100 mg/kg po qd day 8-14, Cpd. X 50 mg/kg iv biw, dexamethasone 3 mg/kg po qd, compared with Vehicle",significant inhibitory activity; also recorded: significantly reduced
same,increase of ear thickness (day 7 − day 6),"OXA induced DTH model; 100 mg/kg po 0 h/6 h after challenge on day 6, vehicle 0.24±0.01 mm",0.22±0.03 mm
same,increase of ear thickness (in words),"OXA induced DTH model; Cpd. 4 100 mg/kg po, dexamethasone 0.05 mg/ear topical 1 h/6 h after challenge on day 6",moderately reduced
